# Data published in patent US8372865B2, “Dihydropyridone amides as P2X7 modulators” (Roche Palo Alto LLC, priority 2008, dated 2013).
# Molecular target: T1, P2X7 receptor (UniProt Q99572)
# T1 sequence (Q99572 1-595): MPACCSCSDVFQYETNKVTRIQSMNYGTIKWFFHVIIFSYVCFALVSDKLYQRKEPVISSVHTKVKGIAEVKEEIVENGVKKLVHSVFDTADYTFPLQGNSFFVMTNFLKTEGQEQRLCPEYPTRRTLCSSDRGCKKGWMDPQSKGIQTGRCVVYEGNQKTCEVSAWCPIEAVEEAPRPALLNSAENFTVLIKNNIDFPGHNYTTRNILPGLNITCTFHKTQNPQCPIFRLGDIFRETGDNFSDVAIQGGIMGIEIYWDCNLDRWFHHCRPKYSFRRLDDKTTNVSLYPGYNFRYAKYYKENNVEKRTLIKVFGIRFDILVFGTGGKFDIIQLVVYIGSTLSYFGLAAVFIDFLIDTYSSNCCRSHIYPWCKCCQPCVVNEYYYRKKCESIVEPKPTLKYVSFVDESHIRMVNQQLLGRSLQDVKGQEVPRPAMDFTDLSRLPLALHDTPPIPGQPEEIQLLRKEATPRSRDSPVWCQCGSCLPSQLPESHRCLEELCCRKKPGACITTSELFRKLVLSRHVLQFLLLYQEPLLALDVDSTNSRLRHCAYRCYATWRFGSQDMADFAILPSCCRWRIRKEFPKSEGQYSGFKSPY
# Test: pKi of Table 1 (assay not stated)
# Type: cell-based
# Procedure: Intracellular Calcium Flux (FLIPR) Assay
# Stock solutions of compounds were prepared from powders as a 10 mM DMSO stock solution. These solutions were stored at RT during the two week period of these experiments to prevent freeze-thaw of the DMSO stocks. The DMSO stocks were added to the appropriate assay buffer at a concentration of 10 μM, and then diluted serially to the final concentrations that were tested. […] The aqueous solutions of compounds as well as ATP (Sigma A7699) and BzATP (Sigma B6396) were prepared fresh for each day of experiment.
# 1321N1 cells stably expressing the full length human P2X7 gene (1321N1-hP2X7) and HEK293 cells stably expressing the full length rat P2X7 gene (HEK293-rP2X7) were obtained from the Roche Cell Culture Facility. 1321N1-hP2X7 cells were grown in Dulbecco's Modified Eagle's Medium (DMEM) high glucose supplemented with 10% FBS and 250 μg/mL G418. HEK293-rP2X7 cells were grown in DMEM/F-12 supplemented with 10% FBS, 1 mM CaCl2, 2 mM MgCl2, 2 mM L-Glutamine and 500 μg/ml G418. Cells were split such that they never became>70% confluent.
# On the day prior to the experiment, 1321N1-hP2X7 or HEK293-rP2X7 cells were released into suspension with calcium-free PBS+Versene and washed by centrifugation with calcium-free PBS to remove the Versene. Cells were resuspended in growth medium at a density of 2.5×10^5 cells/mL and seeded into black walled, clear bottom 96 well plates (50,000 cells/well) approximately 18 hr prior to intracellular calcium flux experiments.
# On the day of the experiment, plates were washed with FLIPR buffer (calcium- and magnesium-free Hank's Balanced Salt Solution (HBSS) supplemented with 10 mM Hepes, 2.5 mM probenecid and 2 mM calcium chloride) using a BIO-TEK 96 channel plate washer and incubated with […] fluo-3 dye at 37° C. for one hr. The dye was then removed by plate washing and the cells were allowed to equilibrate for 20 min at room temperature with antagonist or vehicle (FLIPR buffer). Agonist (100 μM BzATP final concentration for hP2X7; 5 μM BzATP final concentration or rP2X7) was added online with the FLIPR and fluorescence measurements made at 1 sec intervals for 60 sec followed by 3 sec intervals for a further 4 min (5 min total). A final addition of 5 μM ionomycin was made and the maximal BzATP-evoked fluorescence normalized to the maximal ionomycin-evoked fluorescence.
row,SMILES,pKi
1,"CCc1cc2c(cc1NC(=O)C1=CNC(=O)C[C@H]1c1ccc(F)cc1)N(C)C(=O)CO2 [Compound 25, (S)-4-(4-Fluoro-phenyl)-6-oxo-1,4,5,6-tetrahydro-pyridine-3-carboxylic acid (7-ethyl-4-methyl-3-oxo-3,4-dihydro-2H-benzo[1,4]oxazin-6-yl)-amide]",6.88
2,"CCc1cc2c(cc1NC(=O)C1=CNC(=O)C[C@H]1c1cccc(F)c1)N(C)C(=O)CO2 [Compound 26, (S)-4-(3-Fluoro-phenyl)-6-oxo-1,4,5,6-tetrahydro-pyridine-3-carboxylic acid (7-ethyl-4-methyl-3-oxo-3,4-dihydro-2H-benzo[1,4]oxazin-6-yl)-amide]",7.125
3,"Cc1ccc2ncccc2c1NC(=O)C1=CNC(=O)C[C@H]1c1ccc(F)cc1 [Compound 27, (S)-4-(4-Fluoro-phenyl)-6-oxo-1,4,5,6-tetrahydro-pyridine-3-carboxylic acid (6-methyl-quinolin-5-yl)-amide]",7.64
4,"Cc1cc2cnn(CCO)c2cc1NC(=O)C1=CNC(=O)C[C@H]1c1ccc(F)cc1 [Compound 28, (S)-4-(4-Fluoro-phenyl)-6-oxo-1,4,5,6-tetrahydro-pyridine-3-carboxylic acid [1-(2-hydroxy-ethyl)-5-methyl-1H-indazol-6-yl]-amide]",7.645
5,"Cc1cc2c(C)cn(CCO)c2cc1NC(=O)C1=CNC(=O)C[C@H]1c1ccc(F)cc1 [Compound 30, (S)-4-(4-Fluoro-phenyl)-6-oxo-1,4,5,6-tetrahydro-pyridine-3-carboxylic acid [1-(2-hydroxy-ethyl)-3,5-dimethyl-1H-indol-6-yl]-amide]",6.89
6,"CCc1cc2c(cc1NC(=O)C1=CNC(=O)C[C@H]1c1ccc(F)cc1)N(C)C(=O)CC2 [Compound 31, (S)-4-(4-Fluoro-phenyl)-6-oxo-1,4,5,6-tetrahydro-pyridine-3-carboxylic acid (6-ethyl-1-methyl-2-oxo-1,2,3,4-tetrahydro-quinolin-7-yl)-amide]",6.805
7,"CC1=C(C(=O)Nc2ccc3[nH]ncc3c2)C(c2ccc(F)cc2)CC(=O)N1 (stereo not shown) [Compound 32, 4-(4-Fluoro-phenyl)-2-methyl-6-oxo-1,4,5,6-tetrahydro-pyridine-3-carboxylic acid (1H-indazol-5-yl)-amide]",5.14
8,"Cc1cc2c(cc1NC(=O)C1=CNC(=O)C[C@H]1c1ccc(F)cc1)NC(=O)CO2 [Compound 36, (S)-4-(4-Fluoro-phenyl)-6-oxo-1,4,5,6-tetrahydro-pyridine-3-carboxylic acid (7-methyl-3-oxo-3,4-dihydro-2H-benzo[1,4]oxazin-6-yl)-amide]",5.56
9,"O=C1C[C@@H](c2ccc(F)cc2)C(C(=O)Nc2cc3c(cc2Br)OCC(=O)N3CCO)=CN1 [Compound 38, (S)-4-(4-Fluoro-phenyl)-6-oxo-1,4,5,6-tetrahydro-pyridine-3-carboxylic acid [7-bromo-4-(2-hydroxy-ethyl)-3-oxo-3,4-dihydro-2H-benzo[1,4]oxazin-6-yl]-amide]",5.25
10,"O=C1C[C@@H](c2ccc(F)cc2)C(C(=O)Nc2cc3c(cc2Br)CCC(=O)N3)=CN1 [Compound 41, (S)-4-(4-Fluoro-phenyl)-6-oxo-1,4,5,6-tetrahydro-pyridine-3-carboxylic acid (6-bromo-2-oxo-1,2,3,4-tetrahydro-quinolin-7-yl)-amide]",5.145
11,"CCc1cc2cnn(C)c2cc1NC(=O)C1=CNC(=O)C[C@H]1c1cccc(F)c1 [Compound 44, (S)-4-(3-Fluoro-phenyl)-6-oxo-1,4,5,6-tetrahydro-pyridine-3-carboxylic acid (5-ethyl-1-methyl-1H-indazol-6-yl)-amide]",7.825
12,"CCc1cc2cnn(CCO)c2cc1NC(=O)C1=CNC(=O)C[C@H]1c1cccc(F)c1 [Compound 45, (S)-4-(3-Fluoro-phenyl)-6-oxo-1,4,5,6-tetrahydro-pyridine-3-carboxylic acid [5-ethyl-1-(2-hydroxy-ethyl)-1H-indazol-6-yl]-amide]",7.7
13,"O=C1C[C@@H](c2ccc(F)cc2)C(C(=O)Nc2cccc3ccncc23)=CN1 [Compound 47, (S)-4-(4-Fluoro-phenyl)-6-oxo-1,4,5,6-tetrahydro-pyridine-3-carboxylic acid isoquinolin-8-ylamide]",5.29

# The next lines start with the values.
row,pKi,SMILES
1,6.285,"Cc1cc2cc(C)n(CCO)c2cc1NC(=O)C1=CNC(=O)C[C@H]1c1ccc(F)cc1 [Compound 29, (S)-4-(4-Fluoro-phenyl)-6-oxo-1,4,5,6-tetrahydro-pyridine-3-carboxylic acid [1-(2-hydroxy-ethyl)-2,5-dimethyl-1H-indol-6-yl]-amide]"
2,6.285,"Cc1cc2c(cc1NC(=O)C1=CNC(=O)C[C@H]1c1ccc(F)cc1)N(CCO)C(=O)CC2 [Compound 33, (S)-4-(4-Fluoro-phenyl)-6-oxo-1,4,5,6-tetrahydro-pyridine-3-carboxylic acid [1-(2-hydroxy-ethyl)-6-methyl-2-oxo-1,2,3,4-tetrahydro-quinolin-7-yl]-amide]"
3,6.785,"O=C1C[C@@H](c2ccc(F)cc2)C(C(=O)Nc2cc3c(cc2Br)N(CCO)C(=O)CC3)=CN1 [Compound 34, (S)-4-(4-Fluoro-phenyl)-6-oxo-1,4,5,6-tetrahydro-pyridine-3-carboxylic acid [7-bromo-1-(2-hydroxy-ethyl)-2-oxo-1,2,3,4-tetrahydro-quinolin-6-yl]-amide]"
4,7.18,"CCc1c(NC(=O)C2=CNC(=O)C[C@H]2c2ccc(F)cc2)ccc2nc(C)ccc12 [Compound 35, (S)-4-(4-Fluoro-phenyl)-6-oxo-1,4,5,6-tetrahydro-pyridine-3-carboxylic acid (5-ethyl-2-methyl-quinolin-6-yl)-amide]"
5,5.48,"Cc1cc2c(cc1NC(=O)C1=CNC(=O)C[C@H]1c1ccc(F)cc1)N(CCO)C(=O)CO2 [Compound 39, (S)-4-(4-Fluoro-phenyl)-6-oxo-1,4,5,6-tetrahydro-pyridine-3-carboxylic acid [4-(2-hydroxy-ethyl)-7-methyl-3-oxo-3,4-dihydro-2H-benzo[1,4]oxazin-6-yl]-amide]"
6,6.485,"CCc1cc2c(cc1NC(=O)C1=CNC(=O)C[C@H]1c1ccc(F)cc1)N(CCO)C(=O)CO2 [Compound 40, (S)-4-(4-Fluoro-phenyl)-6-oxo-1,4,5,6-tetrahydro-pyridine-3-carboxylic acid [7-ethyl-4-(2-hydroxy-ethyl)-3-oxo-3,4-dihydro-2H-benzo[1,4]oxazin-6-yl]-amide]"
7,7.74,"CCc1cc2cnn(C)c2cc1NC(=O)C1=CNC(=O)C[C@H]1c1ccc(F)cc1 [Compound 42, (S)-4-(4-Fluoro-phenyl)-6-oxo-1,4,5,6-tetrahydro-pyridine-3-carboxylic acid (5-ethyl-1-methyl-1H-indazol-6-yl)-amide]"
8,7.505,"Cc1cc2c(cc1NC(=O)C1=CNC(=O)C[C@H]1c1ccc(F)cc1)CCC(=O)N2C [Compound 43, (S)-4-(4-Fluoro-phenyl)-6-oxo-1,4,5,6-tetrahydro-pyridine-3-carboxylic acid (1,7-dimethyl-2-oxo-1,2,3,4-tetrahydro-quinolin-6-yl)-amide]"
9,7.635,"CCc1c(NC(=O)C2=CNC(=O)C[C@H]2c2cccc(F)c2)ccc2nc(C)ccc12 [Compound 46, (S)-4-(3-Fluoro-phenyl)-6-oxo-1,4,5,6-tetrahydro-pyridine-3-carboxylic acid (5-ethyl-2-methyl-quinolin-6-yl)-amide]"
